pIC50, pKd: −log10 of the molar value. Like-named read-outs stand apart in the source and are kept apart here.
Legend:
mouse cGAS = biological target: T1, mouse cGAS (Mus musculus, UniProt Q8C6L5); test: RapidFire mass spectrometry (RF-MS) cGAS enzymatic assay, cGAMP product formation; format: biochemical; settings: for pIC50: read-out: IC50
T1 construct: recombinant full-length mouse cGAS in reaction buffer; His6-SUMO (N, cleaved yes); made in house; host or cells: E. coli BL21(DE3) RIL
Summary of the method: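 Reactions were stopped with 0.5% formic acid, then ATP, GTP and cGAMP were separated by solid-phase extraction on graphitic carbon and detected by negative-ion MS. Product formation (%) = AUCcGAMP×100/(AUCcGAMP + ½AUCATP + ½AUCGTP). Percent inhibition was normalized to positive and negative controls.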

apo-cGAS = biological target: T2, apo-cGAS (Mus musculus, UniProt Q8C6L5); test: Isothermal titration calorimetry, cGAS in absence of dsDNA; format: binding
T2 construct: full-length (for high-throughput screening) and residues 147–507 (for structural study) of cGAS; His6-SUMO (N, cleaved yes); made in house; host or cells: E. coli BL21(DE3) RIL
T2 sequence (Q8C6L5 147-507): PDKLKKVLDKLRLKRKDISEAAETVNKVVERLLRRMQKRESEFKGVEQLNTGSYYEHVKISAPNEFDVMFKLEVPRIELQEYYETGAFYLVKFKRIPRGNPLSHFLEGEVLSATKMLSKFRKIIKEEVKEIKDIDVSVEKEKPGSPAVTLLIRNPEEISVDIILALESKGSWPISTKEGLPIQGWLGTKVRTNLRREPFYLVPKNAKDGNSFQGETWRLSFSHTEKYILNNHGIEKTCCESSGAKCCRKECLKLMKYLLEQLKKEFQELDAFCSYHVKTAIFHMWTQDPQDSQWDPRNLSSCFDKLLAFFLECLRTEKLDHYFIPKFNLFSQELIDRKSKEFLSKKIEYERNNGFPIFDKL
Procedure: ITC measurements were performed at 25 °C using a MicroCal auto-iTC200 calorimeter (MicroCal, LLC). Purified truncated mouse cGAS was dialyzed against 40 mM HEPES buffer (pH 7.5) and 300 mM NaCl for 24 h at 4 °C. Dialysis led to some precipitation, which were removed through centrifugation followed by collection of the supernatant. The concentration of the protein in supernatant was measured using Pierce® BCA protein assay. The protein was flash frozen in liquid N2 and stored at −80 °C. For the ITC assay, the dialyzed protein was prediluted to 20 µM in the dialysis buffer and diluted to a final concentration of 10 µM in a final buffer containing 40 mM HEPES, 1% DMSO, 150 mM NaCl, 0.01% Tween-20 and + /− dsDNA 10 µM and + /− ATP or GTP 1 mM. Then, 2 μl RU.365 100 µM, dissolved in the buffer aforementioned, were injected into 0.2 ml of protein in the chamber every 150 s. Data for raw ITC and thermodynamic curves, each from one experiment, were downloaded after analysis using Affinimeter software and plotted using GraphPad Prism (7.01). The software calculates error bars as an indication of the contribution of the raw data noise that is determined from the integral of the standard deviation of the baseline during the injection.

RAW 264.7 = test: Cytotoxicity, CellTiter-Glo ATP quantitation at 72 h; format: cell-based; settings: for LD50: RAW macrophages, 72 h, percent viability
Procedure: Small-molecule compounds were serially diluted to concentrations spanning the range tested in the response curves were added to 6.7 × 10^5 RAW-Blue macrophages plated 16 h prior in 96-well dishes, then harvested 72 h after compound addition. ATP was measured using CellTiter Glo Viability Assay (Promega) using 50 µM Tamoxifen (Sigma) as a positive control for cytotoxicity. Viability values were generated using vehicle (DMSO) or the first dose (RU.521) as 100% and Tamoxifen as 0%. Outliers were removed as described previously.

[1] = tested on: BMDM cells from Trex1 −/− mice; test: IFNB1 expression by qRT-PCR in BMDMs from Trex1 −/− mice; format: cell-based, mouse; settings: 24 h treatment at IC50, qRT-PCR
Description: C57BL/6 wild type and Trex1 ^−/− offspring from Trex1 ^+/− crosses (a kind gift from Dr Dan Stetson, University of Washington) were harvested at 6–8 weeks of age. Femurs and tibias were removed from age- and sex-matched mice. The ends were clipped and marrow pushed from bones via syringe. Clumps were broken apart via pipetting, rinsed, and pelleted in PBS, passed through a cell strainer, and plated in seven 100 mm petri dishes per mouse. Cells were matured in media described under the methods for cell lines with an additional 10 ng ml^−1 M-CSF (for a total of 20 ng ml^−1 M-CSF during the maturation period). On Day 7, cells were counted and re-plated at 5 × 10^5 cells ml^−1 in 100 mm petri dishes. BMDMs were maintained by adding an equal volume of media to each dish every 2 days after harvesting and performing a complete media change every 4 days after harvesting. IACUC protocols for humane termination of mice for Vanderbilt University were strictly followed.
BMDMs were incubated in the presence of DMSO or the various inhibitors, then harvested 24 h later. RNA was extracted using Trizol and chloroform. […] Real-time PCR against murine Actb1 and IFNB1 (see Supplementary Table 5 for primer sequences used) was carried out and the data was analyzed as previously described in the method section for cytokine analysis in RAW macrophages.

[2] = Supplementary Table 3, analogs more potent than RU166365

T1 sequence (Q8C6L5 whole entry): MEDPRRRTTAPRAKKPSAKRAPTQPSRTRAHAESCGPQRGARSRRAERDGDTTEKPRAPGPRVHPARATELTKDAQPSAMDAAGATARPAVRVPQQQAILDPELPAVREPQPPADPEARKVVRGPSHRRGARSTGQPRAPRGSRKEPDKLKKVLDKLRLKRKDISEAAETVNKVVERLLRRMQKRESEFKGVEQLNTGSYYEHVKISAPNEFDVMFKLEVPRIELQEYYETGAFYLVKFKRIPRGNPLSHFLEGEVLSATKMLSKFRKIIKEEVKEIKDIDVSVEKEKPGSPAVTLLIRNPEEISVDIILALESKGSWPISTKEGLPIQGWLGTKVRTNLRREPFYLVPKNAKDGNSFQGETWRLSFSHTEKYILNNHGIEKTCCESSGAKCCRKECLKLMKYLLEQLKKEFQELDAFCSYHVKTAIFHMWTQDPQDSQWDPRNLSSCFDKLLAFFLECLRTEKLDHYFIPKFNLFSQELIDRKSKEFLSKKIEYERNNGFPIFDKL

Row | pIC50 (mouse cGAS; Supplementary Table 2, batch of compounds stored in the screening library) | inhibition at 12.5 µM (mouse cGAS; Supplementary Table 2, compound 12.5 µM, read-out: % inhibition at 12.5 µM) [%] | pIC50 (mouse cGAS; [2]) | pKd (apo-cGAS) | T*ΔS (apo-cGAS) [kcal/mol] | rM (apo-cGAS) | ΔG (apo-cGAS) [kcal/mol] | ΔH (apo-cGAS) [kcal/mol] | effect of structural modification on cGAS inhibitory potency (mouse cGAS; compared with RU.365) | improvement in potency (mouse cGAS; relative to RU.365) [fold] | Compound | LD50 over cellular IC50 (RAW 264.7) [fold] | LD50 (RAW 264.7; listed as RU.365) [µM] | LD50 (RAW 264.7; listed as RU.521) [µM] | IFNB1 expression [1]
1 | 6.28 | 99 | 5.72 | 7.01 | -1.511 | 0.9384 | -9.559 | -11.07 | – | – | Cc1nn(-c2nc3ccccc3[nH]2)c(O)c1C1OC(=O)c2ccccc21 (stereo not shown) [RU166365] | 9 | 45 | – | –
2 | – | – | 6.96 | – | – | – | – | – | increased inhibitory potency | 17 | Cc1nn(-c2nc3ccc(Cl)c(Cl)c3[nH]2)c(O)c1C1OC(=O)c2ccccc21 (stereo not shown) [RU320521, 3-[1-(6,7-dichloro-1H-benzimidazol-2-yl)-5-hydroxy-3-methyl-pyrazol-4-yl]-3H-isobenzofuran-1-one] | 88 | – | 62 | reduced IFNB1 expression
